Measurements taken from ChEMBL document CHEMBL1121370, “Synthesis and biological activity of a ketomethylene analogue of a tripeptide inhibitor of angiotensin converting enzyme” (J Med Chem, 1980).

Legend:
[1] = Enzyme kinetic inhibition constant against tripeptide, Hip-His-Leu as substrate
Cavia porcellus = species on record: Cavia porcellus; assay: Compound is evaluated for the inhibition of guinea pig ileum contraction caused by 25 ng/mL angiotensin I; assay type: functional, organism-based
[2] = Enzyme kinetic inhibition constant against tripeptide, Angiotensin I as substrate in a competition inhibition assay

Row | SMILES | Ki [1] [nM] | IC50 (Cavia porcellus) [µg/mL] | Ki [2] [nM]
1 | O=C(N[C@@H](Cc1ccccc1)C(=O)CCC(=O)N1CCC[C@H]1C(=O)O)c1ccccc1 | 106 | 0.5 | 870
2 | C[C@H](CS)C(=O)N1CCC[C@H]1C(=O)O [CAPTOPRIL] | 71.5 | 0.05 | –
